In PubChem BioAssay AID624274 (Broad Institute, 2012) one finds AC50 data, which are given here for 28 compounds.

Structures are written as SMILES. “And” between values parts separate entries of the source, which are not always exact repeats. Equal values may be shown once.

By AC50 is commonly meant the midpoint of the concentration-response curve, whichever way the signal moves.

This experiment deals with Protein disulfide-isomerase (Homo sapiens) (UniProt P07237). Kind of experiment: inhibition of PDI-mediated insulin reduction – biochemical, turbidity, absorbance, cherry-picked samples, set 2, dose response (AID 624274). The note with it: absorbance 650 nm.
Sequence of Protein disulfide-isomerase (Homo sapiens) (P07237 whole entry, looked up): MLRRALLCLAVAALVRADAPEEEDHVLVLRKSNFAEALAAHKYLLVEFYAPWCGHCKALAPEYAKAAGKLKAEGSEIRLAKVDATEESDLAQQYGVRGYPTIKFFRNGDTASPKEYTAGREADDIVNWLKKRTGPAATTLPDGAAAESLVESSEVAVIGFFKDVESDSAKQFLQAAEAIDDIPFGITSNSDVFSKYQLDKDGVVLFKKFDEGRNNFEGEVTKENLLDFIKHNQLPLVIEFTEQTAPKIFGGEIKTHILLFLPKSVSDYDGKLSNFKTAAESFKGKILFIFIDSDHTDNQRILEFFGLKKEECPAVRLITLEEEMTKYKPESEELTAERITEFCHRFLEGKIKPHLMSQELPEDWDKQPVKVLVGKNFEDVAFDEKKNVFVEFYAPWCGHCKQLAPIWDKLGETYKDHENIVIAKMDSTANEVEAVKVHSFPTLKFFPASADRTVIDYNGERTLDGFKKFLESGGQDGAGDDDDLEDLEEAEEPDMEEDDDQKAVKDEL
`CCN(CC)CCNC(=O)C(C(=O)c1ccccc1)n1ccccc1=O` (stereo not drawn): the AC50 is 2.16 µM. Under `COc1cccc2c1C(=O)c1c(O)c3c(c(O)c1C2=O)CC(O)(C(C)=NO)CC3OC1CC(N)C(O)C(C)O1` (stereo not drawn) stands 16.9 µM. Under `Cc1noc(C)c1S(=O)(=O)Nc1ccc2c(c1)CC(=O)N([C@@H](C)CO)C[C@@H](C)[C@H](CN(C)S(=O)(=O)c1ccc(F)cc1)O2` stands 19.5 µM. Under `O=C(c1c(O)cc(O)cc1O)C1c2c(cc(O)c3c2O[C@H](c2ccc(O)cc2)[C@@H](O)C3)OC1c1ccc(O)cc1` (stereo partly drawn) stands 19.5 µM; under `O=C1C[C@@H](c2ccc(O[C@@H]3O[C@H](CO)[C@@H](O)[C@H](O)[C@H]3O)cc2)Oc2cc(O)ccc21`, 15.6 µM. As to `COc1cc(-c2oc3cc(O)cc(O)c3c(=O)c2O[C@@H]2O[C@H](COC3O[C@@H](C)[C@H](O)[C@@H](O)[C@H]3O)[C@@H](O)[C@H](O)[C@H]2O)ccc1O` (stereo partly drawn), the AC50 is 7.96 µM. The value for `Cc1c(O)ccc2c(CC(=O)N[C@@H](Cc3c[nH]c4ccccc34)C(=O)O)cc(=O)oc12` was 6.76 µM. Turning to `C[C@H](CO)N1C[C@H](C)[C@H](CN(C)Cc2ccccc2)Oc2ccc(NC(=O)Nc3ccccc3)cc2CC1=O`, the concentration at half-maximal activity (AC50) was 19.5 µM. The value for `Cc1c(-n2cc(C(=O)c3ccccc3O)cc(C#N)c2=O)c(=O)n(-c2ccccc2)n1C` was 5.89 µM; that for `CC(C)(C)OC(=O)N[C@@H](Cc1c[nH]c2ccccc12)c1nnc(SCC(N)=O)o1` was 19.5 µM. The value for `C[C@@H]1CN([C@H](C)CO)C(=O)c2cccc(NS(C)(=O)=O)c2O[C@H]1CN(C)Cc1ccc(Oc2ccccc2)cc1` was 18.8 µM; that for `CCSc1nnc([C@H](Cc2c[nH]c3ccccc23)NC(=O)OC(C)(C)C)o1` was 19.5 µM; that for `CCOC(=O)c1c(CN2CCN(CCO)CC2)n(-c2ccccc2)c2cc(Br)c(O)cc12` was 0.61 µM. The value for `C[C@]12CC[C@@H]3c4ccc(O[C@@H]5O[C@H](C(=O)O)[C@@H](O)[C@H](O)[C@H]5O)cc4CC[C@H]3[C@@H]1C[C@@H](O)[C@@H]2O` was 15.7 µM; that for `C[C@@H]1O[C@@H](OC[C@H]2O[C@@H](Oc3c(-c4ccc(O)c(O)c4)oc4cc(O)cc(O)c4c3=O)[C@H](O)[C@@H](O)[C@@H]2O)[C@H](O)[C@H](O)[C@H]1O` was 7.62 µM; that for `CN(C)C(=O)CSc1nnc([C@H](Cc2c[nH]c3ccccc23)NC(=O)OC(C)(C)C)o1` was 19.5 µM. For the compound `Cc1c(O)ccc2c(CN3CCN(C/C=C/c4ccccc4)CC3)cc(=O)oc12`, the concentration at half-maximal activity (AC50) is 19.5 µM. The value for `C[C@H](CO)N1C[C@H](C)[C@H](CN(C)S(=O)(=O)c2ccc(F)cc2)Oc2ccc(NC(=O)Cc3cn(C)c4ccccc34)cc2C1=O` was 19.5 µM; that for `NNC(=O)c1cc(-c2ccc(O)cc2)nc2ccc(Br)cc12` was 19.5 µM; that for `C[C@H]1CN([C@@H](C)CO)C(=O)Cc2cc(NC(=O)Nc3ccccc3)ccc2O[C@H]1CN(C)Cc1ccccc1` was 10.3 µM. With `COc1ccc(C(=O)Nc2ccccc2C(=O)NCc2ccco2)cc1`, the AC50 was 0.819 µM.

Take `C[C@H](CO)N1C[C@H](C)[C@@H](CN(C)S(=O)(=O)c2ccccc2)Oc2ccc(NC(=O)Cc3cn(C)c4ccccc34)cc2C1=O`: the AC50 is 0.125 µM. `C[C@@H]1O[C@@H](Oc2c(-c3cc(O)c(O)c(O)c3)oc3cc(O)cc(O)c3c2=O)[C@H](O)[C@H](O)[C@H]1O`: the AC50 is 9.8 µM.

For `C[C@@H]1O[C@@H](Oc2c(-c3ccc(O)c(O)c3)oc3cc(O)cc(O)c3c2=O)[C@H](O)[C@H](O)[C@H]1O`, the half-maximal activity concentration (AC50) was 2.48 µM and 5.59 µM. The value for `O=C(/C=C/c1ccc(NC(=O)c2ccccc2-c2ccccc2C(=O)O)cc1)c1ccccc1` was 11.4 µM; that for `CCOC(=O)C1(CCOc2ccccc2)CCN(Cc2cc(OC)c(O)cc2Cl)CC1` was 6.03 µM; that for `O=C(O)C1C(c2ccccc2)C(C(=O)Oc2ccc(O)cc2)C1c1ccccc1` (stereo not drawn) was 14.7 µM. Under `CCOC(=O)C1(CCOc2ccccc2)CCN(Cc2ccc(O)c(Cl)c2)CC1` stands 0.599 µM.
